Laboratory results taken from EP2812315B1, “PYRROLIC DERIVATIVES, PROCESSES FOR PREPARING THE SAME AND THEIR USES AS A DRUG” (Universite Joseph Fourier, priority 2012, dated 2013).
Converted amounts (≈) assume the structure as drawn.

Assays:
Experiment in all cases: Other MIC determination, microdilution method (CLSI M07-A9) with modifications
Type in all cases: cell-based
[1] = test system: Staphylococcus capitis (CHUG-Scapi10); conditions: clinical strain
Method: (§1) The microdilution method recommended by the Clinical and Laboratory Standard Institute [M07-A9, Vol.32, N°2] was used with the following modifications.
(§2) Bacterial inocula were prepared in Mueller Hinton broth (MH2, BioMérieux, Marcy L'Etoile, France). They were dispensed in 96 well microtiter plates (10^6 CFU/ml of final inoculum, 192 µL per well).
(§3) To avoid cross-contaminations in microtiter plates, one row was left blank between each strain tested. Microplates were incubated for 18h at 37 °C in ambient air. Then MICs were read visually and, in case of visual reading difficulties, confirmed using a spectrophotometer at a wavelength of 630 nm (BioTek® EL808 Absorbance Microplate Reader). MICs corresponded to the minimum pyrrolic compound concentrations that allowed complete visual growth inhibition of bacteria. Drug-free cultures served as growth controls.
(§4) We used four Staphylococcus aureus strains. Two reference strains were provided by the French reference center for Staphylococcus spp. (Lyon, France), including one methicillin-susceptible (MSSA 476) and one methicillin-resistant (MRSA 252) S. aureus strains. The two remaining S. aureus strains were purchased from the CRBIP (Centre de Ressources Biologiques de l'Institut Pasteur): a vancomycin-intermediate strain (ATCC 106414) and a S. aureus strain (SA-1199B) resistant to fluoroquinolones due to overexpression of the NorA multidrug efflux pump. Coagulase-negative Staphylococcus strains included three reference strains purchased from CRBIP: a methicillin-susceptible S. epidermidis strain (ATCC 12228), a methicillin-resistant S. epidermidis strain (ATCC 49461), and a methicillin-susceptible S. sciuri strain (ATCC 29061). We also used 37 clinical strains belonging to the following coagulase-negative Staphylococcus species: S. arlettae (two strains), S. capitis (nine strains), S. epidermidis (one strain), S. haemolyticus (six strains), S. hominis (eight strains), S. lugdunensis (one strain), S. massiliensis (one strain), S. pettenkoferi (two strains), S. saprophyticus (two strains), S. simulans (one strain), and S. warneri (four strains) . Identification of the clinical strains was first obtained using VITEK® 2 System (Biomérieux) and confirmed by amplification and sequencing of the tuf gene (Reference: Bergeron, M., O. Dauwalder, M. Gouy, A.-M. Freydiere, M. Bes, H. Meugnier, Y. Benito, J. Etienne, G. Lina, F. Vandenesch, and S. Boisset. Species identification of staphylococci by amplification and sequencing of the tuf gene compared to the gap gene and by matrix-assisted laser desorption ionization time-of-flight mass spectrometry, Eur. J. Clin. Microbial. Infect. Dis. 2011, 30, 343-354).
(§5) The activity of the pyrrolic compounds 3c and 3i was further tested against 32 clinical strains belonging to 11 coagulase-negative Staphylococcus species.

[2] = test system: Staphylococcus hominis (CHUG-Shom8); conditions: clinical strain
Method: as §1, §2, §3, §4, §5

[3] = test system: Staphylococcus arlettae (CHUG-Sarl2, meti-R)
Method: as §1, §2, §3, §4, §5

[4] = test system: Staphylococcus warneri (CHUG-Swar4); conditions: clinical strain
Method: as §1, §2, §3, §4, §5

[5] = test system: Staphylococcus haemolyticus (CHUG-Shae4)
Method: as §1, §2, §3, §4, §5

[6] = test system: Staphylococcus warneri (CHUG-Swar3); conditions: clinical strain
Method: as §1, §2, §3, §4, §5

[7] = test system: Staphylococcus simulans (CHUG-Ssim1); conditions: clinical strain
Method: as §1, §2, §3, §4, §5

[8] = test system: Staphylococcus hominis (CHUG-Shom7); conditions: clinical strain
Method: as §1, §2, §3, §4, §5

[9] = test system: Staphylococcus warneri (CHUG-Swar2); conditions: clinical strain
Method: as §1, §2, §3, §4, §5

[10] = test system: Staphylococcus hominis (CHUG-Shom2); conditions: clinical strain
Method: as §1, §2, §3, §4, §5

[11] = test system: Staphylococcus haemolyticus (CHUG-Shae7)
Method: as §1, §2, §3, §4, §5

[12] = test system: Staphylococcus capitis (CHUG-Scapi2); conditions: clinical strain
Method: as §1, §2, §3, §4, §5

[13] = test system: Staphylococcus saprophyticus (CHUG-Ssap1); conditions: clinical strain
Method: as §1, §2, §3, §4, §5

[14] = test system: Staphylococcus capitis (CHUG-Scapi3); conditions: clinical strain
Method: as §1, §2, §3, §4, §5

[15] = test system: Staphylococcus capitis (CHUG-Scapi5); conditions: clinical strain
Method: as §1, §2, §3, §4, §5

[16] = test system: Staphylococcus massiliensis (CHUG-Smas1); conditions: clinical strain
Method: as §1, §2, §3, §4, §5

[17] = test system: Staphylococcus hominis (CHUG-Shom3); conditions: clinical strain
Method: as §1, §2, §3, §4, §5

[18] = test system: Staphylococcus haemolyticus (CHUG-Shae6)
Method: as §1, §2, §3, §4, §5

[19] = test system: Staphylococcus capitis (CHUG-Scapi6); conditions: clinical strain
Method: as §1, §2, §3, §4, §5

[20] = test system: Staphylococcus epidermidis (CHUG-Sepi1); conditions: clinical strain
Method: as §1, §2, §3, §4, §5

[21] = test system: Staphylococcus pettenkoferi (CHUG-Spet2); conditions: clinical strain
Method: as §1, §2, §3, §4, §5

[22] = test system: Staphylococcus hominis (CHUG-Shom5); conditions: clinical strain
Method: as §1, §2, §3, §4, §5

[23] = test system: Staphylococcus capitis (CHUG-Scapi9); conditions: clinical strain
Method: as §1, §2, §3, §4, §5

## CC(=O)c1c(C)[nH]c(C(c2ccc(Cl)cc2)c2[nH]c(C)c(C(C)=O)c2C)c1C [3c]
[1]
  MIC: 8 µg/mL (≈ 20.2 µM)
[2]
  MIC: > 32 µg/mL
[3]
  MIC: > 32 µg/mL
[4]
  MIC: 16 µg/mL (≈ 40.3 µM)
[5]
  MIC: 16 µg/mL (≈ 40.3 µM)
[6]
  MIC: 8 µg/mL (≈ 20.2 µM)
[7]
  MIC: > 32 µg/mL
[8]
  MIC: > 32 µg/mL
[9]
  MIC: 8 µg/mL (≈ 20.2 µM)
[10]
  MIC: > 32 µg/mL
[11]
  MIC: 16 µg/mL (≈ 40.3 µM)
[12]
  MIC: 16 µg/mL (≈ 40.3 µM)
[13]
  MIC: > 32 µg/mL
[14]
  MIC: 8 µg/mL (≈ 20.2 µM)
[15]
  MIC: 8 µg/mL (≈ 20.2 µM)
[16]
  MIC: > 32 µg/mL
[17]
  MIC: > 32 µg/mL
[18]
  MIC: 16 µg/mL (≈ 40.3 µM)
[19]
  MIC: 8 µg/mL (≈ 20.2 µM)
[20]
  MIC: 8 µg/mL (≈ 20.2 µM)
[21]
  MIC: > 32 µg/mL
[22]
  MIC: 8 µg/mL (≈ 20.2 µM)
[23]
  MIC: 8 µg/mL (≈ 20.2 µM)

## CC(=O)c1c(C)[nH]c(C(c2[nH]c(C)c(C(C)=O)c2C)c2csc3ccccc23)c1C [3i]
[1]
  MIC: 2 µg/mL (≈ 4.78 µM)
[2]
  MIC: > 32 µg/mL
[3]
  MIC: 16 µg/mL (≈ 38.2 µM)
[4]
  MIC: 4 µg/mL (≈ 9.56 µM)
[5]
  MIC: 4 µg/mL (≈ 9.56 µM)
[6]
  MIC: 1 µg/mL (≈ 2.39 µM)
[7]
  MIC: > 32 µg/mL
[8]
  MIC: 8 µg/mL (≈ 19.1 µM)
[9]
  MIC: 1 µg/mL (≈ 2.39 µM)
[10]
  MIC: > 16 µg/mL
[11]
  MIC: 4 µg/mL (≈ 9.56 µM)
[12]
  MIC: 2 µg/mL (≈ 4.78 µM)
[13]
  MIC: 8 µg/mL (≈ 19.1 µM)
[14]
  MIC: 1 µg/mL (≈ 2.39 µM)
[15]
  MIC: 2 µg/mL (≈ 4.78 µM)
[16]
  MIC: > 16 µg/mL
[17]
  MIC: > 32 µg/mL
[18]
  MIC: 4 µg/mL (≈ 9.56 µM)
[19]
  MIC: 1 µg/mL (≈ 2.39 µM)
[20]
  MIC: > 32 µg/mL
[21]
  MIC: > 16 µg/mL
[22]
  MIC: 16 µg/mL (≈ 38.2 µM)
[23]
  MIC: 2 µg/mL (≈ 4.78 µM)
